Molecular target: T1, KCNQ2/3 channels (Homo sapiens, UniProt O43525+O43526)
T1 construct: expressed in transfected cells
Assay: Fluorescence assay using a voltage sensitive dye (fluorimetry)
Type: cell-based
Settings: CHO-K1 cells expressing KCNQ2/3; for Emax: CHO-K1, plateau effect relative to saturated retigabine (50 μM) = 100%, negative values = antagonistic, read-out: Fluorimetry % efficacy (retigabine = 100%); for EC50: IC50 where % efficacy is negative, read-out: Fluorimetry EC50/IC50

T1 sequence (O43526 whole entry): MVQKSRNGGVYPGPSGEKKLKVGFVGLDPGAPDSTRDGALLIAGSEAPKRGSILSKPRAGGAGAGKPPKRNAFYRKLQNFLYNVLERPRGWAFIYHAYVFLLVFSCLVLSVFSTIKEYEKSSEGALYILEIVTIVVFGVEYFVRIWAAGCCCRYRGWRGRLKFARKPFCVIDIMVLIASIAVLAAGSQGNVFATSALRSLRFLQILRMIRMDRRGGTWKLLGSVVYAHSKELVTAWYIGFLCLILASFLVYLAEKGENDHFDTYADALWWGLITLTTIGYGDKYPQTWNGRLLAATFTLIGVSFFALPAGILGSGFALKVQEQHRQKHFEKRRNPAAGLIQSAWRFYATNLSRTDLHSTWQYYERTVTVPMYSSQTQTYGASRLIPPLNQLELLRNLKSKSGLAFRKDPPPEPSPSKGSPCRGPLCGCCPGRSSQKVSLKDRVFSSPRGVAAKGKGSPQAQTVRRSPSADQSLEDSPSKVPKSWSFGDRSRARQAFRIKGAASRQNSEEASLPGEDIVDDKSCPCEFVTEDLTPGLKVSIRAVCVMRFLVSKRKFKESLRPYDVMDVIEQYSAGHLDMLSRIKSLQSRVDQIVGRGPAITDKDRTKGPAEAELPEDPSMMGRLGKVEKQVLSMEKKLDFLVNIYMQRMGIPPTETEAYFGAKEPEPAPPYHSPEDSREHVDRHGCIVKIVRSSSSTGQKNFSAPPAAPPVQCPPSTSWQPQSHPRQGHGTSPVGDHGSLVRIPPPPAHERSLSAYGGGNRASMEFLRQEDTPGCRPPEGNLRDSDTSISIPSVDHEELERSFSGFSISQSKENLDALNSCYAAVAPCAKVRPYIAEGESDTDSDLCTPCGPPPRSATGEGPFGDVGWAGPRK
T1 sequence (O43525 whole entry): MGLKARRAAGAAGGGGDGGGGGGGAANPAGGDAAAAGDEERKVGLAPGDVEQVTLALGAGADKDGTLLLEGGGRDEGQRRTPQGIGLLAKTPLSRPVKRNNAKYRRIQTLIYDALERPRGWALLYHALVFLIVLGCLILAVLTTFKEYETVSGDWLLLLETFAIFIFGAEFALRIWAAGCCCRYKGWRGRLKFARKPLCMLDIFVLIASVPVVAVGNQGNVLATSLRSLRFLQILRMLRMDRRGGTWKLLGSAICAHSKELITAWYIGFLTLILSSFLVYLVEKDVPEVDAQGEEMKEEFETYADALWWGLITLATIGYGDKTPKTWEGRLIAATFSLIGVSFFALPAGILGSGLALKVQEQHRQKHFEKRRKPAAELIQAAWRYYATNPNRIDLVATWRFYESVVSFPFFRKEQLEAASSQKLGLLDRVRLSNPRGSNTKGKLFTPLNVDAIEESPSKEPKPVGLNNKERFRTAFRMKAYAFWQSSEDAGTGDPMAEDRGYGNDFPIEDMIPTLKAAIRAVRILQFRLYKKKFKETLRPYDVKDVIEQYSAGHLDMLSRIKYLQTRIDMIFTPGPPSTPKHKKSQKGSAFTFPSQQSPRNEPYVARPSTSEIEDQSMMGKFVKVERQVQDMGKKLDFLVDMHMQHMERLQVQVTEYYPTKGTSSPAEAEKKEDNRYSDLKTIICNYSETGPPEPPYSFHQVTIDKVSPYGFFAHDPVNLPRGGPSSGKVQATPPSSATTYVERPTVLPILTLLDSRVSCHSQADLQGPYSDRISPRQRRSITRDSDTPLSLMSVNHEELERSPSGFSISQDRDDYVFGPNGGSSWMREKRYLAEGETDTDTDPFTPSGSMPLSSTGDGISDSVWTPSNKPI

SMILES	Emax	EC50
CCSc1nc(N2CCOC[C@H]2COC)cc(C)c1C(=O)NCc1cccc(F)c1 [Example 179, 2-Ethylsulfanyl-N-[(3-fluorophenyl)-methyl]-6-[(3R)-3-(methoxymethyl)-morpholin-4-yl]-4-methyl-pyridine-3-carboxylic acid amide]	190%	243 nM
COc1nc(N2CCOC[C@H]2C)cc(C)c1C(=O)NCc1ccc(F)cc1 [Example 181, N-[(4-Fluorophenyl)-methyl]-2-methoxy-4-methyl-6-[(3R)-3-methyl-morpholin-4-yl]-pyridine-3-carboxylic acid amide]	167%	255 nM
Cc1cc(N2CCOC[C@H]2C)nc(N(C)C)c1C(=O)NCCCC(C)(C)C [Example 183, 2-Dimethylamino-N-(4,4-dimethyl-pentyl)-4-methyl-6-[(3R)-3-methyl-morpholin-4-yl]-pyridine-3-carboxylic acid amide]	221%	168 nM
CCN(C)c1nc(N2CCOC[C@H]2C)cc(C)c1C(=O)NCCCC(C)(C)C [Example 184, N-(4,4-Dimethyl-pentyl)-2-(ethyl-methyl-amino)-4-methyl-6-[(3R)-3-methyl-morpholin-4-yl]-pyridine-3-carboxylic acid amide]	228%	221 nM
CCN(C)c1nc(N2CCOCC2)cc(C)c1C(=O)NCc1ccc(C(F)(F)F)cc1 [Example 188, 2-(Ethyl-methyl-amino)-4-methyl-6-morpholin-4-yl-N-[[4-(trifluoromethyl)-phenyl]-methyl]pyridine-3-carboxylic acid amide]	154%	343 nM
CCN(C)c1nc(N2CCOCC2)cc(C)c1C(=O)NCCCC(C)(C)C [Example 189, N-(4,4-Dimethyl-pentyl)-2-(ethyl-methyl-amino)-4-methyl-6-morpholin-4-yl-pyridine-3-carboxylic acid amide]	225%	284 nM
CCN(C)c1nc(N2CCOCC2)cc(C)c1C(=O)NCCCC(F)(F)F [Example 190, 2-(Ethyl-methyl-amino)-4-methyl-6-morpholin-4-yl-N-(4,4,4-trifluoro-butyl)-pyridine-3-carboxylic acid amide]	207%	2500 nM
CCN(C)c1nc(N2CCOCC2)cc(C)c1C(=O)NCc1ccc(Cl)cc1 [Example 191, N-[(4-Chlorophenyl)-methyl]-2-(ethyl-methyl-amino)-4-methyl-6-morpholin-4-yl-pyridine-3-carboxylic acid amide]	214%	265 nM
CCSc1nc(N(C)c2ccncc2)cc(C)c1C(=O)NCc1cccc(F)c1 [Example 200, 2-Ethylsulfanyl-N-[(3-fluorophenyl)-methyl]-4-methyl-6-(methyl-pyridin-4-yl-amino)-pyridine-3-carboxylic acid amide]	22%	
CCSc1nc(N2CCOCC2)cc(C)c1C(=O)NCC(O)Cc1ccccc1 (stereo not drawn) [Example 202, 2-Ethylsulfanyl-N-(2-hydroxy-3-phenyl-propyl)-4-methyl-6-morpholin-4-yl-pyridine-3-carboxylic acid amide]	129%	5990 nM
CCN(C)c1nc(N2CCOCC2)cc(C)c1C(=O)NCc1ccc(F)c(F)c1 [Example 203, N-[(3,4-Difluoro-phenyl)-methyl]-2-(ethyl-methyl-amino)-4-methyl-6-morpholin-4-yl-pyridine-3-carboxylic acid amide]	220%	219 nM
Cc1cc(N2CCOCC2)nc(N(C)C)c1C(=O)NCc1ccc(F)cc1 [Example 205, 2-Dimethylamino-N-[(4-fluorophenyl)-methyl]-4-methyl-6-morpholin-4-yl-pyridine-3-carboxylic acid amide]	205%	898 nM
Cc1cc(N2CCOCC2)nc(N(C)C)c1C(=O)NCc1ccc(F)c(F)c1 [Example 206, N-[(3,4-Difluoro-phenyl)-methyl]-2-dimethylamino-4-methyl-6-morpholin-4-yl-pyridine-3-carboxylic acid amide]	207%	402 nM
CCSc1nc(N2CCOCC2)cc(C)c1C(=O)NCc1cc(C)cc(C)c1 [Example 208, N-[(3,5-Dimethyl-phenyl)-methyl]-2-ethylsulfanyl-4-methyl-6-morpholin-4-yl-pyridine-3-carboxylic acid amide]	61%	281 nM
CCCCCCCNC(=O)c1c(C)cc(N2CCOCC2)nc1SCC [Example 209, 2-Ethylsulfanyl-N-heptyl-4-methyl-6-morpholin-4-yl-pyridine-3-carboxylic acid amide]	192%	234 nM
CCSc1nc(N(C)C)cc(C)c1C(=O)NCCCC(C)(C)C [Example 210, 6-Dimethylamino-N-(4,4-dimethyl-pentyl)-2-ethylsulfanyl-4-methyl-pyridine-3-carboxylic acid amide]	223%	187 nM

The remaining molecules from weak to strong by EC50, led by results:

Emax	EC50	SMILES
211%	142 nM	CCCc1nc(N2CCOC[C@H]2C)cc(C)c1C(=O)NCc1ccc(F)cc1 [Example 197, N-[(4-Fluorophenyl)-methyl]-4-methyl-6-[(3R)-3-methyl-morpholin-4-yl]-2-propyl-pyridine-3-carboxylic acid amide]
239%	141 nM	CCN(C)c1nc(N2CCOCC2)cc(C)c1C(=O)NCc1cc(F)cc(F)c1 [Example 204, N-[(3,5-Difluoro-phenyl)-methyl]-2-(ethyl-methyl-amino)-4-methyl-6-morpholin-4-yl-pyridine-3-carboxylic acid amide]
127%	135 nM	CCSc1nc(N2CCOCC2)cc(C)c1C(=O)NCc1ccc(F)c(C)c1 [Example 201, 2-Ethylsulfanyl-N-[(4-fluoro-3-methyl-phenyl)-methyl]-4-methyl-6-morpholin-4-yl-pyridine-3-carboxylic acid amide]
146%	125 nM	CCOc1nc(N2CCOC[C@H]2C)cc(C)c1C(=O)NCc1ccc(F)cc1 [Example 182, 2-Ethoxy-N-[(4-fluorophenyl)-methyl]-4-methyl-6-[(3R)-3-methyl-morpholin-4-yl]-pyridine-3-carboxylic acid amide]
197%	103 nM	Cc1cc(N2CCOC[C@H]2C)nc(C2CC2)c1C(=O)NCc1ccc(F)cc1 [Example 196, 2-Cyclopropyl-N-[(4-fluorophenyl)-methyl]-4-methyl-6-[(3R)-3-methyl-morpholin-4-yl]-pyridine-3-carboxylic acid amide]
123%	86 nM	CCSc1nc(N2CCOC[C@@H]2COC)cc(C)c1C(=O)NCc1cccc(F)c1 [Example 180, 2-Ethylsulfanyl-N-[(3-fluorophenyl)-methyl]-6-[(3S)-3-(methoxymethyl)-morpholin-4-yl]-4-methyl-pyridine-3-carboxylic acid amide]
183%	69 nM	CCSc1nc(N2CCOC[C@H]2C)cc(C)c1C(=O)NCc1ccc(Cl)cc1 [Example 207, N-[(4-Chlorophenyl)-methyl]-2-ethylsulfanyl-4-methyl-6-[(3R)-3-methyl-morpholin-4-yl]-pyridine-3-carboxylic acid amide]
240%	63 nM	COc1nc(N2CCOC[C@H]2C)cc(C)c1C(=O)NCCCC(C)(C)C [Example 186, N-(4,4-Dimethyl-pentyl)-2-methoxy-4-methyl-6-[(3R)-3-methyl-morpholin-4-yl]-pyridine-3-carboxylic acid amide]
232%	50 nM	CCCc1nc(N2CCOC[C@H]2C)cc(C)c1C(=O)NCCCC(C)(C)C [Example 199, N-(4,4-Dimethyl-pentyl)-4-methyl-6-[(3R)-3-methyl-morpholin-4-yl]-2-propyl-pyridine-3-carboxylic acid amide]
242%	49 nM	CCOc1nc(N2CCOC[C@H]2C)cc(C)c1C(=O)NCCCC(C)(C)C [Example 187, N-(4,4-Dimethyl-pentyl)-2-ethoxy-4-methyl-6-[(3R)-3-methyl-morpholin-4-yl]-pyridine-3-carboxylic acid amide]
236%	46 nM	CSc1nc(N2CCOC[C@H]2C)cc(C)c1C(=O)NCCCC(C)(C)C [Example 192, N-(4,4-Dimethyl-pentyl)-4-methyl-6-[(3R)-3-methyl-morpholin-4-yl]-2-methylsulfanyl-pyridine-3-carboxylic acid amide]
189%	31 nM	CCC(C)c1nc(N2CCOC[C@H]2C)cc(C)c1C(=O)NCc1ccc(F)cc1 (stereo partly drawn) [Example 194, N-[(4-Fluorophenyl)-methyl]-4-methyl-6-[(3R)-3-methyl-morpholin-4-yl]-2-(1-methyl-propyl)-pyridine-3-carboxylic acid amide]
246%	29 nM	CCSc1nc(N2CCOC[C@H]2C)cc(C)c1C(=O)NCCCC(C)(C)C [Example 193, N-(4,4-Dimethyl-pentyl)-2-ethylsulfanyl-4-methyl-6-[(3R)-3-methyl-morpholin-4-yl]-pyridine-3-carboxylic acid amide]
246%	19 nM	Cc1cc(N2CCOC[C@H]2C)nc(C2CC2)c1C(=O)NCCCC(C)(C)C [Example 198, 2-Cyclopropyl-N-(4,4-dimethyl-pentyl)-4-methyl-6-[(3R)-3-methyl-morpholin-4-yl]-pyridine-3-carboxylic acid amide]
238%	15 nM	Cc1cc(N2CCOC[C@H]2C)nc(C(C)C)c1C(=O)NCCCC(C)(C)C [Example 185, N-(4,4-Dimethyl-pentyl)-2-isopropyl-4-methyl-6-[(3R)-3-methyl-morpholin-4-yl]-pyridine-3-carboxylic acid amide]
242%	13 nM	CCC(C)c1nc(N2CCOC[C@H]2C)cc(C)c1C(=O)NCCCC(C)(C)C (stereo partly drawn) [Example 195, N-(4,4-Dimethyl-pentyl)-4-methyl-6-[(3R)-3-methyl-morpholin-4-yl]-2-(1-methyl-propyl)-pyridine-3-carboxylic acid amide]

From patent US9168259B2 (GRÜNENTHAL GMBH, priority 2010, dated 2015)
